These results are taken from publication PMC6055880, “Virtual Fragment Screening Identification of a Quinoline‐5,8‐dicarboxylic Acid Derivative as a Selective JMJD3 Inhibitor” (Chemmedchem, 2018).

The inhibition is the change of the read-out against control, counted positive when it falls. What is called IC50 is the point on the concentration scale where inhibition reaches its midpoint.

Format in all cases: biochemical
The target in one assay is JMJD3 (Homo sapiens, UniProt O15054). Kind of assay: AlphaScreen JMJD3 demethylase inhibition. The conditions noted are these: for inhibition at 25 µM: compound at 25 μM. From the text:
(§1) Compounds 4 and 5 also appreciably decrease enzyme activity by 65 % and 60 %, respectively. […] We proceeded to investigate the inhibitory activity of 3 further by evaluation of its IC50 value against JMJD3. The results highlighted a low micromolar activity of compound 3 against JMJD3 (Table 1). […] Similar outcomes were obtained for 3 versus JMJD2C and JMJD2D (Table 1). […] Relative to JMJD1A and FBXL11, we found a decrease in enzymatic activity (Table 1) toward Jarid1A and Jarid1B of 33 % and 26 % by 3.
(§2) 2,4-pyridine dicarboxylic acid (2,4-PC) is purchased from Acros Organics (New Jersey, […]
GSK J1 is purchased from Sigma Aldrich (Italy, Catalog number SML0709).
JIB-04 is purchased from Sigma-Aldrich (St. Louis, MO, Catalog number SML0808).
AlphaLISA anti-mIgG acceptor beads from PerkinElmer (Santa Clara, CA, Catalog number […]
AlphaLISA anti-rIgG acceptor beads from PerkinElmer (Santa Clara, CA, Catalog number […]
AlphaScreen Streptavidin-conjaugated donor beads from PerkinElmer (Santa Clara, CA, […]
Primary antibody 2 from BPS (Catalog number 52140B1).
Primary antibody 5 from BPS (Catalog number 52140E).
Primary antibody 6 from BPS (Catalog number 52140F).
Primary antibody 16-2 from BPS (Catalog number 52140P2).
Primary antibody 17-3 from BPS(Catalog number 52140Q3). […]
Biotinylated histone H3 peptide substrate (UTX and JMJD3) (BPS and Anaspec). […]
JMJD3 Assay Buffer from BPS. […]
4x Detection buffer from BPS (Catalog number 52301).
All of the enzymatic reactions were conducted at room temperature for 60 minutes in a 10 µl mixture containing assay buffer, histone H3 peptide substrate, demethylase enzyme, and the test compound. These 10 µl reactions were carried out in wells of 384-well Optiplate (PerkinElmer). The serial dilution of the compounds was first performed in 100% DMSO with the highest concentration at 1 mM. Each intermediate compound dilution (in 100% DMSO) will then get directly diluted 30x fold into assay buffer for 3.3x conc (DMSO). Enzyme only and blank only wells have a final DMSO concentration of 1%. From this intermediate step, 3 µl of compound is added to 4 µl of demethylase enzyme dilution is incubated for 30 minutes at room temperature. After this incubation, 3 µl of peptide substrate is added. The final DMSO concentration is 1%.
After enzymatic reactions, 5 µl of anti-Mouse Acceptor beads (PerkinElmer, diluted 1:500 with 1x detection buffer) or 5 µl of anti-Rabbit Acceptor beads (PerkinElmer, diluted 1:500 with 1x detection buffer) and 5 µl of Primary antibody (BPS, diluted 1:200 with 1x detection buffer) were added to the reaction mix. After brief shaking, plate was incubated for 30 minutes. Finally, 10 µl of AlphaScreen Streptavidin-conjugated donor beads (Perkin, diluted 1:125 with 1x detection buffer) were added. In 30 minutes, the samples were measured in AlphaScreen microplate reader (EnSpire Alpha 2390 Multilabel Reader, PerkinElmer).
For JMJD3, Donor and acceptor beads and primary antibody were incubated for 1 h,[9] for the remaining enzymes for 30’.
5 µL of AlphaScreen assay buffer containing EDTA (30 mM) and NaCl (800 mM) to stop the […]
Except for JMJD3, the experiments were performed by BPS Bioscience.
Enzyme activity assays were performed in duplicates at each concentration. The A-screen intensity data were analyzed and compared. In the absence of the compound, the intensity in each data set was defined as 100% activity. In the absence of enzyme, the intensity in each data set was defined as 0% activity. The values of % activity versus a series of compound concentrations were then plotted using non-linear regression analysis of Sigmoidal dose-response curve generated with the equation Y=B+(T-B)/1+10((LogEC50-X)×Hill Slope), where Y=percent activity, B=minimum percent activity, T=maximum percent activity, X= l ogarithm of compound and Hill Slope=slope factor or Hill coefficient. The IC 50 value was determined by the concentration causing a half -maximal percent activity.
Background: In Alpha technology, singlet oxygen from a donor bead excites a nearby acceptor bead.

A further assay concerns the target T1, UTX (Homo sapiens, UniProt O15550).
T1 construct: purchased BPS Bioscience (contract assay)
Put plainly: AlphaScreen UTX demethylase inhibition (selectivity). The conditions noted are these: at 10 μM; NI = no significant inhibition at 10 μM.
Source text: as §1, §2
(§3) GSK J1 is purchased from Sigma Aldrich (Italy, Catalog number SML0709). […]
(§4) After enzymatic reactions, 5 µl of anti-Mouse Acceptor beads (PerkinElmer, diluted 1:500 with 1x detection buffer) or 5 µl of anti-Rabbit Acceptor beads (PerkinElmer, diluted 1:500 with 1x detection buffer) and 5 µl of Primary antibody (BPS, diluted 1:200 with 1x detection buffer) were added to the reaction mix. […] In 30 minutes, the samples were measured in AlphaScreen microplate reader (EnSpire Alpha 2390 Multilabel Reader, PerkinElmer). […]
(§5) Enzyme activity assays were performed in duplicates at each concentration. The A-screen intensity data were analyzed and compared. […] The IC 50 value was determined by the concentration causing a half -maximal percent activity.

The next assay has as its target T2, JMJD1A (Homo sapiens, UniProt Q9Y4C1).
T2 construct: purchased BPS Bioscience (contract assay)
T2 sequence (Q9Y4C1 1-1321): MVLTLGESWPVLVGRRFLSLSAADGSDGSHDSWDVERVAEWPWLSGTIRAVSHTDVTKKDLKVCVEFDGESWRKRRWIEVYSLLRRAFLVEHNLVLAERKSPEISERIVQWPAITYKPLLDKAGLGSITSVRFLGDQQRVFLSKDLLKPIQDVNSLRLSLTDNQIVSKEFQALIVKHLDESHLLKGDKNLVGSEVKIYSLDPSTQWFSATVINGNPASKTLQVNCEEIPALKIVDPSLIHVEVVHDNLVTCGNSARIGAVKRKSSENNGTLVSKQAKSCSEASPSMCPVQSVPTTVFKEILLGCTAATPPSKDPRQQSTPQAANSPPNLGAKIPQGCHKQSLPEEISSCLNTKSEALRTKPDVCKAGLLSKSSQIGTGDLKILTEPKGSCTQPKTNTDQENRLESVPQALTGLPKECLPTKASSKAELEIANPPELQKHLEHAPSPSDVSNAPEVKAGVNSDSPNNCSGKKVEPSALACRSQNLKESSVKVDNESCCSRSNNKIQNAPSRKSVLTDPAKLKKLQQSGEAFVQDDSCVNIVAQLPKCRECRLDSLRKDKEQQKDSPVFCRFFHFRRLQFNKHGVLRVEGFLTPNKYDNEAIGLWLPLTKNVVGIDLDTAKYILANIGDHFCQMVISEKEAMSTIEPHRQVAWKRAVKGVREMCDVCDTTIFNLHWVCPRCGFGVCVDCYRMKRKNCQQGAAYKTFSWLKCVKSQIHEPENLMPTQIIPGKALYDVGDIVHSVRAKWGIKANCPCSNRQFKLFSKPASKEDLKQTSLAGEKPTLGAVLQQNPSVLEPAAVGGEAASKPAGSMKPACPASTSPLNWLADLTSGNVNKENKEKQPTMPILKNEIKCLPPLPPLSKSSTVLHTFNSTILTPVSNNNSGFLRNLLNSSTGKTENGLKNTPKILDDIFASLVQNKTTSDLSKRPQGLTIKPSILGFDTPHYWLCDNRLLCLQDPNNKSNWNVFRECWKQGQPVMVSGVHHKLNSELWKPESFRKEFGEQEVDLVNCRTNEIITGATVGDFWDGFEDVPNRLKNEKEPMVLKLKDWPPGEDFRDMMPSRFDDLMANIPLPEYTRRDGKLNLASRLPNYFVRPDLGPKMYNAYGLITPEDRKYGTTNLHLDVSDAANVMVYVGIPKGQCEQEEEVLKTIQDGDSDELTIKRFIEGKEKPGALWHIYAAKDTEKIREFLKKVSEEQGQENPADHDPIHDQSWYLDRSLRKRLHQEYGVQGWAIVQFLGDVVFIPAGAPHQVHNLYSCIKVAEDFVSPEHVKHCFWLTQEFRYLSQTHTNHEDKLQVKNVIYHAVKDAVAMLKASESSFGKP
Put plainly: AlphaScreen JMJD1A demethylase inhibition (selectivity).
Source text: as §1, §2, §3, §4, §5

For another assay, the target named is T3, FBXL11 (Homo sapiens, UniProt Q9Y2K7).
T3 construct: purchased BPS Bioscience (contract assay)
T3 sequence (Q9Y2K7 1-1162): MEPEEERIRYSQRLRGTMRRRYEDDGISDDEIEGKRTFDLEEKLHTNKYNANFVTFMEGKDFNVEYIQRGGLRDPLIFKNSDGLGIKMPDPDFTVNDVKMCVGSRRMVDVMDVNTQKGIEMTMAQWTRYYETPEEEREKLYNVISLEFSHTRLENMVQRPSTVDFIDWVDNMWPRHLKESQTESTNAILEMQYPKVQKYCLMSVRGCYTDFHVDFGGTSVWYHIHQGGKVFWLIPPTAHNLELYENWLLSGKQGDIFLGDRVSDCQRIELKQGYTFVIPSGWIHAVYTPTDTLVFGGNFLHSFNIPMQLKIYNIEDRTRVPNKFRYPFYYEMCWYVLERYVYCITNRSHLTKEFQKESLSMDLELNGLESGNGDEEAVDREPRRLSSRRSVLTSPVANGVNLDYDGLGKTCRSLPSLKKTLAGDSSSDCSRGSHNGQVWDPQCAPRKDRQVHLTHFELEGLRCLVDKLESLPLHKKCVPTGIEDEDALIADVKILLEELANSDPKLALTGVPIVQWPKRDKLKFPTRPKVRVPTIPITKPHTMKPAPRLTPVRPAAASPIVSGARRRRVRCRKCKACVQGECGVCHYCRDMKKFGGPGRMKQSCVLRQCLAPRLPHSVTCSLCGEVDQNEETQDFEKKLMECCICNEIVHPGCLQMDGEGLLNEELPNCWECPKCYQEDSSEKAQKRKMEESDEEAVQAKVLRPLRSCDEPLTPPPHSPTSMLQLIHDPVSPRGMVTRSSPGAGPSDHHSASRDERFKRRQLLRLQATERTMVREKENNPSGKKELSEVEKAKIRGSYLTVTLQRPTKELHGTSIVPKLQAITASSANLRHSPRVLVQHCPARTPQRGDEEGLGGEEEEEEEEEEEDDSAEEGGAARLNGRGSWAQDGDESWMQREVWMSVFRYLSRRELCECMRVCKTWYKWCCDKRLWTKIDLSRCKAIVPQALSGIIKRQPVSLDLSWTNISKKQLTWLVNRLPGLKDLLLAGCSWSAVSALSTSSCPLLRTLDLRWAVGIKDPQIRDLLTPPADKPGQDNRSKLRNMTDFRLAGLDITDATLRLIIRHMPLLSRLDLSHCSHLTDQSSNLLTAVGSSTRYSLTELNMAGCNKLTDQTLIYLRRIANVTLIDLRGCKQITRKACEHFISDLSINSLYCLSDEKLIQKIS
Kind of assay: AlphaScreen FBXL11 demethylase inhibition (selectivity).
Source text: as §1, §2, §3, §4, §5

The next assay has as its target T4, Jarid1A (Homo sapiens, UniProt P29375).
T4 construct: purchased BPS Bioscience (contract assay)
Put plainly: AlphaScreen Jarid1A demethylase inhibition (selectivity).
Source text: as §1, §2, §3, §4, §5

Another assay has as its target T5, Jarid1B (Homo sapiens, UniProt Q9UGL1).
T5 construct: purchased BPS Bioscience (contract assay)
Kind of assay: AlphaScreen Jarid1B demethylase inhibition (selectivity).
Source text: as §1, §2, §3, §4, §5

Molecules are shown by their SMILES. A value given as a limit tells only on which side of the number the result lay.

Chain of JMJD3 (O15054 whole entry): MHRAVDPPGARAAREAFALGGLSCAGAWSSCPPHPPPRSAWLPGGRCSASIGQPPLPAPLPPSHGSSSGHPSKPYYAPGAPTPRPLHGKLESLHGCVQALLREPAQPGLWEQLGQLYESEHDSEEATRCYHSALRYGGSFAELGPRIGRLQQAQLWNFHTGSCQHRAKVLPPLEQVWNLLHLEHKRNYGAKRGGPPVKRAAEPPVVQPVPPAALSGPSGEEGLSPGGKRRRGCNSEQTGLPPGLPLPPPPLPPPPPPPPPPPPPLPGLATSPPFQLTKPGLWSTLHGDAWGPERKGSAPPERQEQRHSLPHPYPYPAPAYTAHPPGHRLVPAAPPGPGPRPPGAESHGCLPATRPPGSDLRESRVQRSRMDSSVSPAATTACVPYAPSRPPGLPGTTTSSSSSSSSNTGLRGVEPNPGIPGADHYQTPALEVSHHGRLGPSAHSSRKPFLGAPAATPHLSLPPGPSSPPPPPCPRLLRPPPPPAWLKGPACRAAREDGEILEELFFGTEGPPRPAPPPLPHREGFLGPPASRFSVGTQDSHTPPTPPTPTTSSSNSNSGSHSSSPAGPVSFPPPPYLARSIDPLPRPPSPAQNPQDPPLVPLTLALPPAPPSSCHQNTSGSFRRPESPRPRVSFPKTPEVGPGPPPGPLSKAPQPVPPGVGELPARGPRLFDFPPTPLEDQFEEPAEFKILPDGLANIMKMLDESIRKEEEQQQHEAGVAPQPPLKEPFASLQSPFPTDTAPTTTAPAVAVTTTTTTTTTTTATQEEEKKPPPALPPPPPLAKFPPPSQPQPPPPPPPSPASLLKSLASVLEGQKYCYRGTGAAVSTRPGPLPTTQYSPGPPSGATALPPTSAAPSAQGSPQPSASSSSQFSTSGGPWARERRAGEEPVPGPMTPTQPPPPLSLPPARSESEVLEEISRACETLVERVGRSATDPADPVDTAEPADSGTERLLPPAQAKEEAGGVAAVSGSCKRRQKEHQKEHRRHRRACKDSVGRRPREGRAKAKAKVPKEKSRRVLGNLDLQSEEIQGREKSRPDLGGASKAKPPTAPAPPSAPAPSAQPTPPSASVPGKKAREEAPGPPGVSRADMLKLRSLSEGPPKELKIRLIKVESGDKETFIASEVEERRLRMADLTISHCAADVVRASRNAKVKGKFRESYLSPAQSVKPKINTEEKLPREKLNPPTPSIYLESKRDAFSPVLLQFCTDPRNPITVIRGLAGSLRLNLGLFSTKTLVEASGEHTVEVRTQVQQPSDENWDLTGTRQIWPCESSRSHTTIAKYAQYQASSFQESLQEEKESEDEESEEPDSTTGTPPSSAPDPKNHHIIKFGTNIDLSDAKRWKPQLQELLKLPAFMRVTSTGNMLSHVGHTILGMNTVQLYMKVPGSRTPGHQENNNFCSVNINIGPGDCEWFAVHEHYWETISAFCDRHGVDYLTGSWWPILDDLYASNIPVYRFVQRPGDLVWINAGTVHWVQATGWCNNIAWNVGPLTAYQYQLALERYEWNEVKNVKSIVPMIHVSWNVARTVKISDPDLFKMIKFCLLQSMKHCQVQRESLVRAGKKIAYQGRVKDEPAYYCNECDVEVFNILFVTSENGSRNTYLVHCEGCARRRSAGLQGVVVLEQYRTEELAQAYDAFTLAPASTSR
T4 sequence (P29375 whole entry): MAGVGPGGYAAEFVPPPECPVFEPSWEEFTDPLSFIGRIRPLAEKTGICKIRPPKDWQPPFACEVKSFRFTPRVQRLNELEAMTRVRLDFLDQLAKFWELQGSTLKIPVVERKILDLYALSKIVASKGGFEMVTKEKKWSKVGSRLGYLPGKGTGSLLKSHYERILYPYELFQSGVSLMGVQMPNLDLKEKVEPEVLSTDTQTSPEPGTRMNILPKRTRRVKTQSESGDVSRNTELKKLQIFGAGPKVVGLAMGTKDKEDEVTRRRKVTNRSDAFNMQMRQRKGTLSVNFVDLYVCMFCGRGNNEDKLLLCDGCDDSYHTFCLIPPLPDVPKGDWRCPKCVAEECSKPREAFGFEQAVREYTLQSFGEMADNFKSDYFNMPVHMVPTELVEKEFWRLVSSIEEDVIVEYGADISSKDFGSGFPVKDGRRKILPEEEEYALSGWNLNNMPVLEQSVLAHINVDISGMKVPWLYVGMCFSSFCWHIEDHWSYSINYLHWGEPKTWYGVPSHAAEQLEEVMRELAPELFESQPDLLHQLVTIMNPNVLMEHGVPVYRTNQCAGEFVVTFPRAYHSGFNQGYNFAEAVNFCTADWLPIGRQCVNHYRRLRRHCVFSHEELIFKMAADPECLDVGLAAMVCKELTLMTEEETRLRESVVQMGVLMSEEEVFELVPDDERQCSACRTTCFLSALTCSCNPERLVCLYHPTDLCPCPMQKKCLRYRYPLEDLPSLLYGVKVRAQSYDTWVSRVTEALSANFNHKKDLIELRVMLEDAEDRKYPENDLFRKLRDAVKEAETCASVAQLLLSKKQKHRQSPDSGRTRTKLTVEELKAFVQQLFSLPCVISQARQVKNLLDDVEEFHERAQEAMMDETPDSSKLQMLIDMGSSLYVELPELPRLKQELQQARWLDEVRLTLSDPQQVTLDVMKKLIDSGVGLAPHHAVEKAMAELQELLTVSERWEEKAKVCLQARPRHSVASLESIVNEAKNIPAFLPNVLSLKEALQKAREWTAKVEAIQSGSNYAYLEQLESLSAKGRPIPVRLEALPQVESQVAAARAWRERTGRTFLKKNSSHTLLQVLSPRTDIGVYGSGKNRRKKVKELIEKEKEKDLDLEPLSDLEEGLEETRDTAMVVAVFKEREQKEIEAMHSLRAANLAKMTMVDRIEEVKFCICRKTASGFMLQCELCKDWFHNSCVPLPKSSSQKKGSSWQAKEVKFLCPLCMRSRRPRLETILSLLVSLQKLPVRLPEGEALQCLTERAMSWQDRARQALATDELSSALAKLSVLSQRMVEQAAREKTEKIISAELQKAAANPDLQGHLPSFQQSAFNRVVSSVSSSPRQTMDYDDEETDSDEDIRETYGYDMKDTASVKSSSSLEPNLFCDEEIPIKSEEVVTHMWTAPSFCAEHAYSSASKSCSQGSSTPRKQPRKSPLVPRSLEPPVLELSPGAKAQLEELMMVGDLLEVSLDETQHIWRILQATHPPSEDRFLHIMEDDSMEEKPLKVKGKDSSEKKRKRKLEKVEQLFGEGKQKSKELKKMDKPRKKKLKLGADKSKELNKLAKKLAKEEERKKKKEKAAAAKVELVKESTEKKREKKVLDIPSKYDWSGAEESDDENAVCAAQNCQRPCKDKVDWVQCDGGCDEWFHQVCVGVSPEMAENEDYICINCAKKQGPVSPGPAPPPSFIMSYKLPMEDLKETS
T5 sequence (Q9UGL1 whole entry): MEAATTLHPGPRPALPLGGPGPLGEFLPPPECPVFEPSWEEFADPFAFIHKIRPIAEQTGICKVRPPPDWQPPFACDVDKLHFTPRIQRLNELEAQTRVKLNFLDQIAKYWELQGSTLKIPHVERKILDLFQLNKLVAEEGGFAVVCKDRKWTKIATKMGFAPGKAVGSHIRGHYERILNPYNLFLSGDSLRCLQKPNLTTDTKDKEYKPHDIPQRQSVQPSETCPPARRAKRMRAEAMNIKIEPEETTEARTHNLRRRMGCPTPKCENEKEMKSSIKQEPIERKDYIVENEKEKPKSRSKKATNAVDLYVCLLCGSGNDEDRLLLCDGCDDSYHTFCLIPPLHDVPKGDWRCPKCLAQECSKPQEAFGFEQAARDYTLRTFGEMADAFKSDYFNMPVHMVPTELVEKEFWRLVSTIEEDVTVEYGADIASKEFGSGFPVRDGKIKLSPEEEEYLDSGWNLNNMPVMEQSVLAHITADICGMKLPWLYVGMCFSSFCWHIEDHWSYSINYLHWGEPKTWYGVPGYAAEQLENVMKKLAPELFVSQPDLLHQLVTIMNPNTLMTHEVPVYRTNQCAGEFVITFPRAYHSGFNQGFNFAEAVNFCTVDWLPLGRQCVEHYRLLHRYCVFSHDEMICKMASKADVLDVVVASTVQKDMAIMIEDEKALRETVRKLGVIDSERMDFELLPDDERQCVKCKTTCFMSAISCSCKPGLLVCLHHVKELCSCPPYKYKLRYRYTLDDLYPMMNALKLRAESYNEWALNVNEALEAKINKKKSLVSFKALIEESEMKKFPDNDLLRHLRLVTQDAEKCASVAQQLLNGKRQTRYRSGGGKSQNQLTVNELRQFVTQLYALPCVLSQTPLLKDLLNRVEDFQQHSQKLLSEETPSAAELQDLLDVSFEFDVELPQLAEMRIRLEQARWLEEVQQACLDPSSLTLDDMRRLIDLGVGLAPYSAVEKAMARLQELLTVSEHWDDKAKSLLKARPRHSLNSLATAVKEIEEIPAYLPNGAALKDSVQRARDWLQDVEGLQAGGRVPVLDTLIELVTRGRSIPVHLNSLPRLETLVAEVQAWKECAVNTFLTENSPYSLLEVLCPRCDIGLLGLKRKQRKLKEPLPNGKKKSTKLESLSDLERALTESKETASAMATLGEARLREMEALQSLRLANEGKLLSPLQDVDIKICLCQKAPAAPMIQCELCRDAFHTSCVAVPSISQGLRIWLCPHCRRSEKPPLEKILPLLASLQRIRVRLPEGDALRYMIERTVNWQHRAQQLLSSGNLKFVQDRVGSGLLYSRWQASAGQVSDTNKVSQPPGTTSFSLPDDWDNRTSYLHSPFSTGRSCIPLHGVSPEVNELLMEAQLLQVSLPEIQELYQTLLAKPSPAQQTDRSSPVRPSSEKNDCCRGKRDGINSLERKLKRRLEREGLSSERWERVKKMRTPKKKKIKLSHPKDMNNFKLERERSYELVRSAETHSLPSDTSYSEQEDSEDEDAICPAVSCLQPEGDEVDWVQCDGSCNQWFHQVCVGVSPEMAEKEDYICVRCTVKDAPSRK

Consider `COc1ncc(-c2cnc3c(C(=O)O)ccc(C(=O)O)c3c2)c(OC)n1` [Compound 3, 3‐(2,4‐dimethoxypyrimidin‐5‐yl)quinoline‐5,8‐dicarboxylic acid], for which, on JMJD3, the inhibition at 25 µM came to 90%. The IC50 on JMJD3 (read-out: IC50±SEM JMJD3) was 1.52 ± 0.5 µM; against JMJD1A (footnote b of Table 1), above 10 µM; at FBXL11 (footnote b of Table 1), above 10 µM; at Jarid1A (footnote b of Table 1), above 10 µM; against Jarid1B (footnote b of Table 1) it was above 10 µM. On UTX, the “Percent Inhibition UTX” value is recorded as “no significant inhibition”. The inhibition at 10 µM worked out at 12% on JMJD1A (at 10 μM, read-out: Percent Inhibition JMJD1A); 15% at FBXL11 (at 10 μM, read-out: Percent Inhibition FBXL11); 33% on Jarid1A (at 10 μM, read-out: Percent Inhibition Jarid1A); 26% at Jarid1B (at 10 μM, read-out: Percent Inhibition Jarid1B).
With `NS(=O)(=O)c1ccc(-c2cnc3c(C(=O)O)ccc(C(=O)O)c3c2)cc1` [Compound 4], the inhibition at 25 µM at JMJD3 is 65%.
For `O=C(O)c1ccc(-c2cnc3c(C(=O)O)ccc(C(=O)O)c3c2)s1` [Compound 5], the inhibition at 25 µM against JMJD3 came out at 60%.
Same read-out and setting: the figure for `COc1cc(-c2cnc3c(C(=O)O)ccc(C(=O)O)c3c2)c(OC)nn1` [Compound 6] is around 25%.
Same read-out and setting: the figure for `COc1cc(-c2cnc3c(C(=O)O)ccc(C(=O)O)c3c2)ccc1F` [Compound 7] is around 12%.
